The values below come from patent publication US20090082353A1, “TREATMENT OF EPILEPSY WITH NON-IMIDAZOLE ALKYLAMINES HISTAMINE H3-RECEPTOR LIGANDS” (priority 2005, published 2009).

Series [1] has as its system clonic convulsions induced by pentetrazole. The experiment in a line: clonic convulsions induced by pentetrazole in mice. It is filed as in vivo. The protocol:
The inventors also assessed the effects of one of the non-imidazole compound they described in WO 00/06254, BF2-649 (3-(4-chlorophenyl)propyl 3-piperidinopropyl ether) at 10 mg/kg on clonic convulsions induced by pentetrazole in mice.

Series [2] has as its system GAERS (Genetic Absence Epilepsy, Rat from Strasbourg). The experiment in a line: GAERS rat genetic model of absence epilepsy, EEG spike-and-wave discharges. It is filed as in vivo. The method, then: In a rat genetic model of human epilepsy (particularly of “absence” epilepsy in children and adults), the GAERS (Genetic Absence Epilepsy, Rat from Strasbourg; Vergnes et al, Epilepsy Res. 1989; 4, 8-13), 3-(4-Chlorophenyl)propyl 3-piperidinopropyl ether diminished by up to 77% the number and duration of spike-and-wave discharges, i.e. characteristic EEG changes of the disorder, at a dose of 20 mg/kg. In this strain of Wistar rats with spontaneous generalized non convulsive seizures (absence seizures), seizures are characterized by bilateral and synchronous spike-and-wave discharges (7-9 Hz) on EEG, concomitant with behavioural arrests. These discharges generally last about 20 sec and occur spontaneously every minute when the animals are in a state of quiet wakefulness. Pharmacological reactivity of this model is similar to human absence-epilepsy (e.g., valproate and ethosuccimide are protective). After a recovery period, implanted rats (cortical and hippocampal EEG electrodes) were recorded over a 20 min reference period. Then, 3-(4-Chlorophenyl)propyl 3-piperidinopropyl ether (5 or 20 mg/kg, i.p.) or saline were administered (n=8 per group) and the EEG recording was continued for 60 min. Rats received the alternate treatment one week later. Cumulated duration of absence-seizures was measured by 20 min periods during the two sessions.

The test system of series [3] is intrahippocampal kainate-induced temporal lobe seizures. Nature of the series: intrahippocampal kainate-induced temporal lobe seizures in mice, EEG. Type of series: in vivo. The protocol:
Unilateral injection of kainic acid (1 nmol in 50 nl) into the dorsal hippocampus in mice induces a non-convulsive status that results in spontaneous recurrent focal seizures after 2-3 weeks. Seizures (5 to 20 times per hour in quiet mice) are characterized by a behavioural arrest and/or stereotypes, concomitant with spike and poly-spike discharges recorded in the injected hippocampus. […] This model reproduces the behavioural, EEG, pharmacological and histological characteristics of mesial temporal lobe epilepsy, a form of epilepsy which is often drug-resistant in humans. After a recovery period, implanted mice (for EEG recordings) were injected with kainic acid. They were EEG recorded at least 3 weeks after injection for selection of animals with consistent hippocampal seizure. Then, after a 20 min reference recording period, selected mice received either 3-(4-Chlorophenyl)propyl 3-piperidinopropyl ether (10 or 20 mg/kg i.p.) or saline and the recording was continued for 60 min. Treatments were given in a counter balanced order (after a one week washout period between two sessions).

Series [4] has as its system pharmacoresistant epilepsy. The experiment in a line: clinical study in pharmacoresistant epileptic patients. It is filed as in vivo, human. To be noted: 20 to 40 mg/day during 3 months. The method, then:
A clinical study has confirmed the efficiency of the compounds of the invention in treating pharmacoresistant epilepsy. Epileptic patients were enrolled. Those patients suffered from highly frequent seizures (generally more than 10 seizures monthly) despite their treatment consisting in one or more usual anti-epileptic drug of various classes (barbiturics, depakine, lamotrigine, gabapenine, benzodiazepines . . . ). Patients were administered with 3-(4-Chlorophenyl)propyl 3-piperidinopropyl ether at doses comprised between 20 and 40 mg/day during 3 months. Seizures frequency was reduced by 50% in a significant number of patients.

For series [5], the system named is high-frequency cortical rhythms (EEG). Nature of the series: EEG rhythms in healthy human volunteers. It is filed as in vivo. From the text: In healthy human volunteers, orally-administered 3-(4-Chlorophenyl)propyl 3-piperidinopropyl ether dose-dependently elicited electroencephalographic changes (i.e. enhanced high-frequency cortical rhythms at the expense of low-frequency rhythms) which are regarded as predictory of facilitated thalamo-cortical activation and inhibition of pathological synchronisation underlying spike-wave discharges in epileptic states (Avanzini et al, Clinical Neurophysiol, 2000, 111, Suppl 2, S19). Groups of 6 male subjects received 40-120 mg 3-(4-Chlorophenyl)propyl 3-piperidinopropyl ether orally.

Series [6] deals with photo paroxymal response (PPR). Nature of the series: photosensitivity model, intermittent photic stimulation (IPS) in epileptic patients. Type of series: in vivo, human. From the text: Photosensitivity, defined as a generalized epileptiform reaction on intermittent photic stimulation (IPS) outlasting the stimulus train is found in about 5% of epileptic patients (Kasteleijn-Nolst trenité DGA. Acta Neurol Scand, 1989; 80:1-149). Unlike most other epilepsies, photosensitive epilepsy is a reflex epilepsy and epileptiform discharges can be evoked at any time by IPS in the laboratory. By determination of both upper and lower sensitivity limits (frequencies per flash) a so-called photosensitivity range can be determined. This range is related to liability of seizures in daily life of the patient. This photosensitivity range is relatively stable within a patient and can be diminished of abolished by antiepileptic medication. […] Furthermore, it is possible to explore the time, onset and duration of the effect, a dose-response relationship and to document serum concentration-time profiles of the study drug. […] The single blind design was chosen in order to reduce comparison bias of IPS response observed after treatment with 3-(4-Chlorophenyl)propyl 3-piperidinopropyl ether administration at Day 2 with placebo evaluation at Day 1. Five single doses will be studied (10 to 90 mg). the margin of safety was determined from the nonclinical and clinical experiments with 3-(4-Chlorophenyl)propyl 3-piperidinopropyl ether.

The test system of series [7] is electrically-driven convulsions. Conditions: in vivo; cited from earlier work.
Series [8] deals with pentetrazole-induced convulsions. To be noted: mice and rats; cited from earlier work.
In the next series the test system is convulsions. Conditions: rodents; cited from earlier work.
A further series relates to H3-receptor. Conditions: cited from earlier work.
The subject of series [9] is intrahippocampal kainate-induced temporal lobe seizures. Conditions: mice; cited from earlier work.
Series [10] relates to GAERS (Genetic Absence Epilepsy, Rat from Strasbourg). Conditions: in vivo; cited from earlier work.
The test system of another series is seizure susceptibility. To be noted: mice; cited from earlier work.
The test system of series [11] is amygdaloid-kindled seizures. Conditions: rats; cited from earlier work.

With `Clc1ccc(CCCOCCCN2CCCCC2)cc1` [3-(4-chlorophenyl)propyl 3-piperidinopropyl ether], in series [1] (10 mg/kg with carbamazepine, sodium valproate, phenyloin, diazepam, Phenobarbital), the “modification (enhancement) of anticonvulsive properties of established antiepileptic drugs” value is listed as “did not modify”. Moreover, the “preventing the convulsion (latency or duration)” value in [1] (10 mg/kg, mice, pentetrazole) is “ineffective”. For the same compound, the “diminution of number and duration of spike-and-wave discharges” value in series [2] (20 mg/kg i.p., GAERS rats) was “up to 77%”. Moreover, in series [2] (20 mg/kg, 20 min), the “spike and wave discharges at 20 min” value is listed as “total suppression”. The “spike and wave discharges at 1 h” value in series [2] (20 mg/kg, 1 h) was “nearly total suppression”. Also, in series [3] (10 or 20 mg/kg i.p., mice), the frequency of discharges entry is given as “reduced significantly” and the “modification of interictal EEG profiles (non specific sedative effect)” value is given as “without any significant modification”. Also, the “hippocampal seizures, number and duration” value in [3] (kainate mice) was “reducing both the number and duration of seizures”. The tolerability result in series [4] was “perfectly well tolerated”. In addition, the “reduction of seizures frequency” value in series [4] (add-on, in a significant number of patients) is listed as 50%. Also, the “EEG response after repeated dosing” value in series [5] (40 mg for 1 week) is reported as “enhancement of the response observed on single administration”. Also, the “fast EEG activities” value in [5] (40-120 mg orally, single dose, anterior leads, dose-dependent) was “significant enhancement of fast activities”. Also, the “suppression of PPR” value in series [6] (20 mg, four patients) is “one patient showed total suppression”. The “duration of total PPR suppression” value in series [6] (20 mg, one patient) turned out to be 6 h. Moreover, the “suppression of PPR” value in series [6] (40 mg, four patients) was “one showed partial suppression of PPR and one total suppression of PPR”. Besides, in series [6] (60 mg), the duration of effect result is “more than 8 hours” and the “onset of effect post administration” value is 1 to 2 h. In [6] (60 mg, four patients), the clinical response entry is listed as “clinical response in all four patients” and the “total suppression of PPR” value is reported as “two patients showed total suppression of PPR”. For the same compound, the “longest duration of effect” value in series [6] (60 mg, one patient) is “up to 36 hours”. Besides, the “tolerability of addition to conventional antiepileptic drugs” value in series [6] (add-on to Depakine, Tegretol, Keppra, Lamictal) is recorded as “well tolerated”. Besides, the “EEG changes triggered by repetitive photic stimulation” value in series [6] (single dose, photosensitive patients) is given as “dose-dependently suppressed”.
On to `C(=NC12CC3CC(CC(C3)C1)C2)N1CCC(c2cnc[nH]2)CC1.Cl.Cl` [AQ0145], for which the “effect on electrically-driven convulsions” value in [7] is “reduce electrically-driven convulsions”. Further, in [8], the “effect on pentetrazole-induced convulsions” value is on record as “prevent pentetrazole-induced convulsions”.
`N[C@@H](Cc1c[nH]cn1)C(=O)O` [L-histidine]: in the series on convulsions, the protection from convulsions entry is listed as “tend to protect rodents from convulsions”.
Regarding `CNCCc1ccccn1` [betahistine], the “potency of H3-receptor antagonism” value in the series on H3-receptor was “only very low potency”.
As to `NC(=O)N1c2ccccc2C=Cc2ccccc21` [carbamazepine], the “effect of antiepileptic drugs on kainate-induced seizures” value (from here on “effect of antiepileptic drugs”) in series [9] is given as “without significant effects”.
On to `NC(=NCc1ccc(Cl)cc1)SCCCc1cnc[nH]1` [clobenpropit], for which, in series [7], the “effect on electrically-driven convulsions” value is reported as “reduce electrically-driven convulsions”. Moreover, in series [8], the “effect on pentetrazole-induced convulsions” value is “prevent pentetrazole-induced convulsions”.
With `CN(C)CCCSC(=N)N` [dimaprit], the “potency of H3-receptor antagonism” value with H3-receptor is listed as “only very low potency”.
For the compound `CCC1(C)CC(=O)NC1=O` (stereo not shown) [ethosuccimide], the “pharmacological reactivity of the GAERS model” value in series [10] is on record as “protective”.
In the case of `NCCc1c[nH]cn1` [histamine], the protection from convulsions entry with convulsions was “tend to protect rodents from convulsions”.
Consider `CC[C@@H](C(N)=O)N1CCCC1=O` [levetiracetam], for which the “effect of antiepileptic drugs” value in series [9] was “without significant effects”.
With `Cc1nc(N)nc(N)c1-c1ccc(Cl)c(Cl)c1` [metoprine], the protection from convulsions result in the series on convulsions is “tend to protect rodents from convulsions”.
Consider `c1ccc(C2(N3CCCCC3)CCCCC2)cc1` [phencyclidine], for which the “potency of H3-receptor antagonism” value with H3-receptor is “only very low potency”.
On to `O=C1NC(=O)C(c2ccccc2)(c2ccccc2)N1` [phenyloin], for which, in series [9], the “effect of antiepileptic drugs” value is given as “without significant effects”.
As to `S=C(NC1CCCCC1)N1CCC(c2cnc[nH]2)CC1` [thioperamide], the “effect on electrically-driven convulsions” value in series [7] was “reduce electrically-driven convulsions”. Moreover, the “effect on pentetrazole-induced convulsions” value in series [8] is given as “prevent pentetrazole-induced convulsions”. For the same compound, in the series on seizure susceptibility, the “effect on seizure susceptibility” value is given as “failed to affect seizure susceptibility”. In series [11], the “effect on amygdaloid-kindled seizures” value was “ineffective”.
